Data: article PMC9781104 (Pharmaceutics, 2022)
Where two headings read alike, the source gives them in different places.

How the values were obtained:
[1] = cited from earlier work
[2] = Pharmacokinetic panel study in CYP2D6-genotyped healthy female volunteers (observed plasma AUClast/Cmax, DGI and DD(G)I with clarithromycin or paroxetine); assay type: in vivo, human
Experimental: Clinical data from a recently performed pharmacokinetic panel study (EudraCT-Nr.: 2009-014531-20, ClinicalTrails.gov: NCT01289756) were used for PBPK model development. The study protocol, patient information sheet and consent form were approved by the Ethics Committee of the University of Tübingen and the German Federal Institute for Drugs and Medical Devices (BfArM). All study participants had signed an informed consent form.
The study was conducted in 20 healthy, Caucasian, premenopausal female volunteers that were genotyped for CYP2D6 polymorphisms and subsequently assigned to predicted phenotypes according to the respective CYP2D6 activity score (AS) as depicted in Table 1 [17, 18]. […] After a wash-out phase of at least three weeks, clomiphene was administered concomitantly with the strong CYP3A4 inhibitor clarithromycin [19]. Here, the participants received 500 mg clarithromycin twice daily for four days. On day 5, a single dose of clomiphene citrate was administered together with 500 mg clarithromycin. Finally, in the third period, all subjects received clomiphene citrate together with the strong CYP2D6 inhibitor paroxetine. Here, 40 mg paroxetine was administered once daily for two days. On day 3, participants received a single dose of clomiphene citrate concomitantly with 40 mg paroxetine (Figure 1).
For the evaluation of DGI and DD(G)I effects, the predicted AUClast and Cmax effect ratios were calculated according to Equations (4) and (5) and compared with the corresponding observed values. Here, model performance was assessed using the prediction acceptance limits proposed by Guest et al. with 1.25-fold variability. (4) AUClast, AS=i ratio=AUClast, effect, AS=i/AUClast, control (5) Cmax, AS=i ratio=Cmax, effect, AS=i/Cmax, control
For the calculation of DGI ratios, AUClast, effect, AS=i and Cmax, effect, AS=i represent the AUClast and Cmax for CYP2D6 AS = i, while AUClast, control and Cmax, control are the AUClast and Cmax values for the NM (AS = 2) population. For the calculation of DD(G)I ratios, AUClast, effect, AS=i and Cmax, effect, AS=i represent the AUClast and Cmax for the CYP2D6 AS = i in the DD(G)I scenario with clarithromycin or paroxetine, while AUClast, control and Cmax, control are the AUClast and Cmax values for the CYP2D6 AS = i without the concomitant use of perpetrator drugs.

[3] = system: CYP2D6; test: In vitro scaling factors from CYP2D6 activity score-specific in vitro metabolite formation rates; assay type: in vitro ADME, human
Excerpt: Here, kcat, AS=i represents the catalytic rate constant for CYP2D6 AS = i, kcat, AS=2 is the catalytic rate constant for the NM population and IVSFi is the corresponding in vitro scaling factor (IVSF).
S2. Drug-Gene-Interaction (DGI) Modeling
S2.1. CYP2D6 in vitro Scaling Factors
The estimated CYP2D6 kcat values for the NM population were extrapolated to the intermediate metabolizers (IM) (AS=0.5, AS=0.75 and AS=1) and ultrarapid metabolizers (UM) populations according to Equation 1 in the main manuscript, using in vitro scaling factors (IVSFs). Determination of IVSFs were based on AS-specific in vitro metabolite formation rates relative to the corresponding formation rate in NM as a reference. The respective IVSFs for each CYP2D6-dependent pathway are depicted in Table S8. Measured in vitro data for (E)-4-OH-Clom and (E)-4-OH-DE-Clom AS-specific formation rates were available, while mean values were assumed for the remaining CYP2D6-dependent metabolic pathways.
Table S8. Employed in vitro scaling factors (IVSFs) for individual CYP2D6 activity scores. […]

[4] = system: CYP2D6; conditions: cited from earlier work; for Km: literature value adapted with fu,inc
[5] = system: CYP3A4; parameters: method as in ref [17, 18] of supplement; conditions: ref [17, 18] of supplement, cited from earlier work; for Km: literature value adapted with fu,inc
[6] = [38] of supplement (ChemAxon Chemicalize), cited from earlier work; for Solubility (pH 6.5): ref [30]; for Solubility (pH 6.5) / pKa (base), literature: [34]; for pKa (base), literature: ref [23], [30]
[7] = molecular target: estrogen receptor; conditions: read-out: half-maximal inhibitory concentration towards the estrogen receptor; cited from earlier work
[8] = parameters: method as in ref [35] of supplement; conditions: ref [35] of supplement; cited from earlier work
[9] = parameters: method as in PMID 22108178; conditions: healthy female volunteers; cited from earlier work
[10] = ref [19] ((E)-Clom, (E)-4-OH-Clom), [17, 18] ((E)-DE-Clom) of supplement, read-out: CYP2D6 Km → undef.

## CCN(CC)CCOc1ccc(C(=C(Cl)c2ccccc2)c2ccccc2)cc1 [clomiphene, Clomiphene]
[1]; CYP2D6 IM
  response to clomiphene therapy: all CYP2D6 intermediate metabolizers (IM) responded
[1]; CYP2D6 NM
  non-responders to clomiphene therapy: 30%
[1]
  women who do not respond during clomiphene therapy: 8–54%

## CCNCCOc1ccc(/C(=C(/Cl)c2ccccc2)c2ccccc2)cc1 [(E)-DE-Clom, (E)-N-desethylclomiphene]
[2]; PM
  AUClast reduction during concomitant clarithromycin: ~ 34%
[3]; AS=0, mean value assumed
  IVSF, CYP2D6-mediated pathway → undef.: 0
[3]; AS=0, relative to NM, from in vitro formation rates, supplement ref [17]
  IVSF, CYP2D6-mediated pathway → (E)-4-OH-DE-Clom: 0
[3]; AS=0.5, mean value assumed
  IVSF, CYP2D6-mediated pathway → undef.: 0.17
[3]; AS=0.5, relative to NM, from in vitro formation rates, supplement ref [17]
  IVSF, CYP2D6-mediated pathway → (E)-4-OH-DE-Clom: 0.16
[3]; AS=0.75, mean value assumed
  IVSF, CYP2D6-mediated pathway → undef.: 0.23
[3]; AS=0.75, relative to NM, from in vitro formation rates, supplement ref [17]
  IVSF, CYP2D6-mediated pathway → (E)-4-OH-DE-Clom: 0.19
[3]; AS=1, mean value assumed
  IVSF, CYP2D6-mediated pathway → undef.: 0.51
[3]; AS=1, relative to NM, from in vitro formation rates, supplement ref [17]
  IVSF, CYP2D6-mediated pathway → (E)-4-OH-DE-Clom: 0.44
[3]; AS=2 (NM, reference)
  IVSF, CYP2D6-mediated pathway → (E)-4-OH-DE-Clom: 1
  IVSF, CYP2D6-mediated pathway → undef.: 1
[3]; AS=3, mean value assumed
  IVSF, CYP2D6-mediated pathway → undef.: 1.41
[3]; AS=3, relative to NM, from in vitro formation rates, supplement ref [17]
  IVSF, CYP2D6-mediated pathway → (E)-4-OH-DE-Clom: 1.30
[4]; as incorporated in the model
  CYP2D6 contribution to the formation of the desethyl metabolite: ~ 20%
[4]; ref [17, 18] of supplement, read-out: CYP2D6 Km → (E)-4-OH-DE-Clom
  Km: 0.49 µM
[4]; [10]
  Km: 0.97 µM
[5]; from measured in vitro metabolic enzyme activities
  ratio kcat,CYP3A4 / kcat,CYP2D6 for metabolism to (E)-N,N-didesethylclomiphene: 0.13
[5]; read-out: CYP3A4 Km → undef.
  Km: 0.97 µM
[6]
  Solubility (pH 6.5): 0.46 mg/ml
  pKa (base), literature: 9.59

## CCN(CC)CCOc1ccc(/C(=C(/Cl)c2ccccc2)c2ccc(O)cc2)cc1 [(E)-4-OH-Clom, (E)-4-hydroxyclomiphene]
[2]; DGI setting
  order of AUClast across CYP2D6 phenotypes: AUCIM (AS = 0.5) > AUCNM > AUCUM > AUCPM
[2]; PM
  observed AUClast effect ratio in clarithromycin DDGI scenario vs control: ~ 1.3 fold
[2]; all phenotypes except for PM
  Cmax change due to inhibition of CYP2D6 by paroxetine: decreased
[2]; clarithromycin, all phenotypes
  AUClast change during CYP3A4 inhibition: slight increase
[3]; AS=0, mean value assumed
  IVSF, CYP2D6-mediated pathway → undef.: 0
[3]; AS=0.5, mean value assumed
  IVSF, CYP2D6-mediated pathway → undef.: 0.17
[3]; AS=0.75, mean value assumed
  IVSF, CYP2D6-mediated pathway → undef.: 0.23
[3]; AS=1, mean value assumed
  IVSF, CYP2D6-mediated pathway → undef.: 0.51
[3]; AS=2 (NM, reference)
  IVSF, CYP2D6-mediated pathway → undef.: 1
[3]; AS=3, mean value assumed
  IVSF, CYP2D6-mediated pathway → undef.: 1.41
[7]
  IC50: 2.2 nM
[4]; [10]
  Km: 3.6 µM
[5]; read-out: CYP3A4 Km → (E)-4-OH-DE-Clom
  Km: 3.4 µM
[6]
  Solubility (pH 6.5): 0.06 mg/ml
  pKa (base), literature: 9.41
[6]; ref [34]
  pKa (acid): 8.64
[8]
  fu (fraction unbound), literature: 0.6%
[9]
  maximum plasma concentration (Cmax) in CYP2D6 PM compared with NM: approximately ten-fold lower
